For this assay, the system named is human gastric cancer cell line NCI-N87. Kind of assay: ATCC's MTT Cell Proliferation Assay. The assay is classed as cell-based. Particulars: 72 hours post-treatment, concentration that inhibits cell growth by 50%. Here is the method:
To test the activities of sodium trans-[tetrachlorobis(1H-indazole)ruthenate(III)], ATCC's MTT Cell Proliferation Assay® was performed using human gastric cancer cell line NCI-N87 (differentiated carcinoma). Stock cultures were allowed to grow to 70-80% confluence for this study. The anti-proliferative activity of sodium trans-[tetrachlorobis(1H-indazole)ruthenate(III)], against the indicated cell line was evaluated in vitro using the ATCC's MTT Cell Proliferation Assay (Catalog No. 30-1010K). NCI-N87 was grown using RPMI1640 (Cell Gro 10-040-CV), with 1% of 1M HEPES, 1% sodium pyruvate, 1% of 45% glucose solution, 10% of heat-inactivated FBS and 1% of pen/strep/glutamine. […] The plates were left overnight at room temperature in the dark and was read on a plate reader using SoftMax® Pro (version 5.2, Molecular Devices).
The absorbance data was analyzed as follows: Absorbance values were converted to Percent of Control and plotted against test agent concentrations for IC50 calculations using SoftMax® Pro (version 5.2, Molecular Devices). […] Percent of Control values were calculated by dividing the absorbance values for each test well by the No Drug Control average (column 11 values; cells+vehicle control) and multiplying by 100. […]

The structures appear in SMILES notation.

These results are taken from patent publication US20130281528A1, “METHOD OF TREATING GASTRIC CANCER” (Niiki Pharma Acquisition Corp.2, priority 2010, published 2013).

By IC50 is commonly meant the concentration that inhibits the measured activity by half. Low readings indicate greater potency in that assay, high ones weaker potency in that assay. In turn, `[Cl][Ru-]([Cl])([Cl])[Cl].[Na+].c1ccc2[nH]ncc2c1.c1ccc2[nH]ncc2c1` [sodium trans-[tetrachlorobis(1H-indazole)ruthenate(III)]] came in with an IC50 of 3.73 µM.
